Experimental data: publication PMC4669708 (Cell Death & Disease, 2015)

How the values were obtained:
Experiment in all cases: c-ponatinib pulldown LC-MS/MS
Type in all cases: binding
[1] = target: CDK8 (Homo sapiens, UniProt P49336)
How it was run: (§1)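 Affinity matrix: 25 nmol c-ponatinib/50 μl NHS-Sepharose; 10 mg whole cell lysate input; duplicate pulldowns, each run twice by LC-MS/MS. DTT/iodoacetamide, trypsin. Human SwissProt search, protein FDR <1%. Competition with free compound; fold reduction = median spectral count ratio.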

[2] = target: TNIK (Homo sapiens, UniProt Q9UKE5)
Chain of TNIK (Q9UKE5 whole entry): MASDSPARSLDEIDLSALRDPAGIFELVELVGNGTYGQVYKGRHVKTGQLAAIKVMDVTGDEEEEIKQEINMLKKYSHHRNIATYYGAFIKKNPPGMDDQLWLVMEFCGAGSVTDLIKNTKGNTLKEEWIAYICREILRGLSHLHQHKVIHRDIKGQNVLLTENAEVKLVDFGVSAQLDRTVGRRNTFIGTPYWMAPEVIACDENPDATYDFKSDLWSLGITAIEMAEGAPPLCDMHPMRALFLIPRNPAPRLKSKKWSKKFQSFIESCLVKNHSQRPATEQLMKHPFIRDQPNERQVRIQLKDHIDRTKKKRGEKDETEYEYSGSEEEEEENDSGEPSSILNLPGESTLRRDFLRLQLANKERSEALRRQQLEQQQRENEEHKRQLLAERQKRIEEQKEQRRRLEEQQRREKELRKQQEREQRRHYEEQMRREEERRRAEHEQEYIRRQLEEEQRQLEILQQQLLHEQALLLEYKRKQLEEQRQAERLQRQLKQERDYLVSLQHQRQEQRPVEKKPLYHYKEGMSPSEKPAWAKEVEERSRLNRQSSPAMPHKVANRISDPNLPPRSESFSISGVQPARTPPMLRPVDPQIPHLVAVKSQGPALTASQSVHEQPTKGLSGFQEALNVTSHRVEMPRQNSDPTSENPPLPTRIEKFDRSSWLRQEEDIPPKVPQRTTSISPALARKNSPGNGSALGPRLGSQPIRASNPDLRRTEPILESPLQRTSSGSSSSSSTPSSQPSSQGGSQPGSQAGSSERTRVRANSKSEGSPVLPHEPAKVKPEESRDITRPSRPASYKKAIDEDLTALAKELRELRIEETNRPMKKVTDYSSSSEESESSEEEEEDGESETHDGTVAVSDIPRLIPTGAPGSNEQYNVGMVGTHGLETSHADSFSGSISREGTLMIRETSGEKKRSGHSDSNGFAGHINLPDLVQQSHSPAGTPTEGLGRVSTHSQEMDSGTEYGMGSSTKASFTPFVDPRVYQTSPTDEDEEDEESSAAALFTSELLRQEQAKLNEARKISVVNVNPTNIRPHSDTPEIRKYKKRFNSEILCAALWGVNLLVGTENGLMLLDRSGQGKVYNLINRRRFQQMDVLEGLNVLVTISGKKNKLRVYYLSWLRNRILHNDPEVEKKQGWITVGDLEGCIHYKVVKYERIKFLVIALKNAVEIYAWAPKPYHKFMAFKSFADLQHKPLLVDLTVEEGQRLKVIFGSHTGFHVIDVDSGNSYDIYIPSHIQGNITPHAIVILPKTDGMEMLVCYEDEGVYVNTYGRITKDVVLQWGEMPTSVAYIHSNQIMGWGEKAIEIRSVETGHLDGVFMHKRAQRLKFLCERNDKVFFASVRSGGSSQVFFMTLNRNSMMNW
How it was run: as §1

[3] = target: T1, RIPK1 (Homo sapiens, UniProt Q13546)
T1 sequence (Q13546 1-671): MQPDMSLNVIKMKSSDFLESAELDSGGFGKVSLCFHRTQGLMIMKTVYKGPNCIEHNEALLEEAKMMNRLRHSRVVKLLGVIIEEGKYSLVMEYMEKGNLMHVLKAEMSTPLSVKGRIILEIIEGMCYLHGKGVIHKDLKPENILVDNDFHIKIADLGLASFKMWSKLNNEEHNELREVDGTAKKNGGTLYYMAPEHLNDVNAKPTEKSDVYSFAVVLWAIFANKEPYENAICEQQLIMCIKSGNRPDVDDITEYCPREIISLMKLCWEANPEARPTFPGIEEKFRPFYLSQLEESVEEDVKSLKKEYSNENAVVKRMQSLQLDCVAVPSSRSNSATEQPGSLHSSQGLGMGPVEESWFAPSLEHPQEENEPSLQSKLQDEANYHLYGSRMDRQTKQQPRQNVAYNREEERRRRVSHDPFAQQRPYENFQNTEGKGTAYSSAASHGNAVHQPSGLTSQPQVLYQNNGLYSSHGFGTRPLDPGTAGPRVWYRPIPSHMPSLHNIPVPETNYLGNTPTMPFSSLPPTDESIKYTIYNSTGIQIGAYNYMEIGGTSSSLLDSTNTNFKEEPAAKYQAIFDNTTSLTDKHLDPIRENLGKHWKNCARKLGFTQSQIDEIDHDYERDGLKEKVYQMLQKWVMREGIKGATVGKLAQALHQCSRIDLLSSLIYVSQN
How it was run: as §1

[4] = target: T2, MAP3K7 (Homo sapiens, UniProt O43318)
T2 sequence (O43318 1-606): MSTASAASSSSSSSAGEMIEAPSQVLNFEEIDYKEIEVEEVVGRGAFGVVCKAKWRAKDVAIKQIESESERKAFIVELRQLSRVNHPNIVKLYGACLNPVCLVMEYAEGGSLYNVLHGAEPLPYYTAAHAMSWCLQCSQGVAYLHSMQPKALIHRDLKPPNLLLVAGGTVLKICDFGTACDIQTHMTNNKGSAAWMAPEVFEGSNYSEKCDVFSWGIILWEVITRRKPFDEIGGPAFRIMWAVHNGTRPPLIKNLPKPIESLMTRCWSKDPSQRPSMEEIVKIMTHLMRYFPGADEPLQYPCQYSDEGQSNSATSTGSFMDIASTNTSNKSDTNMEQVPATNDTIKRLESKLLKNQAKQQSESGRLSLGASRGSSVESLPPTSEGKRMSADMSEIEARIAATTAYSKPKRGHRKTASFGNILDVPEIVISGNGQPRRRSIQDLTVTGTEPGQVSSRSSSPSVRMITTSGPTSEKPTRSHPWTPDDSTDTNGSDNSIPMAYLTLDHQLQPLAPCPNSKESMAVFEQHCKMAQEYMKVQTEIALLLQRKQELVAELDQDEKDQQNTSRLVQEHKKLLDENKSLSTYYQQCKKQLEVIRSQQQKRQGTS
How it was run: as §1

Chain of CDK8 (P49336 whole entry): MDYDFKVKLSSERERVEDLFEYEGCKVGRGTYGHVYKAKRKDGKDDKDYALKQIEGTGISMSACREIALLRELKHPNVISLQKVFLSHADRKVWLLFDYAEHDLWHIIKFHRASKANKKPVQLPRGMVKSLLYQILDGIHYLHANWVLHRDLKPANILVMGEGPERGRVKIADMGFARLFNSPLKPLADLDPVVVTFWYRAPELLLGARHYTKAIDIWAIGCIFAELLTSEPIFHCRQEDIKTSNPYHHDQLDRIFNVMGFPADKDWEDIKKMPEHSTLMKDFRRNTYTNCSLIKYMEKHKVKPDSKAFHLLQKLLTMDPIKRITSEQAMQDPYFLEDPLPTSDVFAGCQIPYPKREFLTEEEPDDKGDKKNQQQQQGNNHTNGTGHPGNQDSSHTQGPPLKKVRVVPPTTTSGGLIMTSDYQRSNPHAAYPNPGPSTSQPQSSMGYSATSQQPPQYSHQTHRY
Chain of CDK8 (P24863 whole entry partner): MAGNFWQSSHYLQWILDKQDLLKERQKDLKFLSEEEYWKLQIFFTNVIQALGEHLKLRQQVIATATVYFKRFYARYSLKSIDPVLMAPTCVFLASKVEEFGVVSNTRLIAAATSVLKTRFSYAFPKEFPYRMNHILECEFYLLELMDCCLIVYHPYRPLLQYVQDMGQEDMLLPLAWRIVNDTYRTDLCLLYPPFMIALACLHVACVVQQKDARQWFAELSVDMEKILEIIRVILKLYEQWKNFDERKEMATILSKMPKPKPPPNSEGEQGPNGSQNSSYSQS

Av. SC comp. ([1]; + free ponatinib): 0
Total SC comp. ([1]; + free ponatinib): 0
Av. SC ([1]; no competitor): 3.75
Total SC ([1]; no competitor): 15
Av. SC comp. ([2]; + free ponatinib): 0
Total SC comp. ([2]; + free ponatinib): 0
Av. SC ([2]; no competitor): 26.75
Total SC ([2]; no competitor): 107
Av. SC comp. ([3]; + free ponatinib): 0
Total SC comp. ([3]; + free ponatinib): 0
Av. SC ([3]; no competitor): 1.5
Total SC ([3]; no competitor): 6
Av. SC comp. ([4]; + free ponatinib): 2.25
Total SC comp. ([4]; + free ponatinib): 9
Av. SC ([4]; no competitor): 19.5
Total SC ([4]; no competitor): 78
Compound: Cc1ccc(C(=O)Nc2ccc(CN3CCN(CCCN)CC3)c(C(F)(F)F)c2)cc1C#Cc1cnc2cccnn12 [c-ponatinib]
